# Values quoted from earlier work, collected in article PMC10534093 (Food Chemistry: X, 2023).
# Test system: ACE
# Details: ref Kheeree et al., 2020
row,Substance,IC50 against ACE
1,GPAGPAGL,8 µg/mL

# Same assay, conditions: ref Sitanggang, Putri, Palupi, Hatzakis, & Budijanto, 2021
row,Substance,IC50 against ACE
1,IPPGVPYWT,400 µg/mL

# Same assay, conditions: ref Tu et al., 2018
row,Substance,IC50 against ACE
1,NMAINPSKENLCSTFCK,2830 µg/mL

# Same assay, conditions: reference peptide; ref Yu, Zhao, Liu, Lu, & Chen, 2011
row,Substance,IC50 against ACE
1,QIGLF [reference compound],420 µg/mL

# Target: α-glucosidase
# Details: ref Zhang, Wang, & Li, 2016
row,Substance,IC50 against α-glucosidase
1,NSPR,93 µg/mL

# Test system: ACE
# Details: Table 2; ref BIOPEP-UWM and AHTPDB
row,Substance,Known activity in the database
1,DRDSYNLHPGDAQRIPAGTTY,ACE inhibitor
2,DRPSIGNLAGANSLLNALP,ACE inhibitor
3,EGEQPRPFPFP,ACE inhibitor
4,IGTLAGANSLLNALP,ACE inhibitor
5,NNPFKFLVPPQESQKR,ACE inhibitor
6,PFSFLVPPQESQR,ACE inhibitor
7,PIYSNKLGKFF,ACE inhibitor
8,PLDLTSFVLH,ACE inhibitor
9,PSEVEAVFKPLGPEVGELRV,ACE inhibitor
10,PSSPFTDLWDPRRVGD,ACE inhibitor
11,QIGLF [reference compound],ACE inhibitor
12,RPSIGNLAGANSLLNALP,ACE inhibitor
13,RPSIGNLAGANSLLNALPE,ACE inhibitor
14,TPMIGTLAGANSLLNALP,ACE inhibitor
15,VISQIPSQVQELAFPG,ACE inhibitor
16,WGPLVNPESQQGSPR,ACE inhibitor
17,YEAGVVPPGARFEPPR,ACE inhibitor

# Test system: α-glucosidase
# Details: Table 1; ref BIOPEP-UWM and AHTPDB
row,Substance,Known activity in the database
1,IQAEGGLT [reference compound],Alpha-glucosidase inhibitor
2,IVTVEGGLSVISPKW,Alpha-glucosidase inhibitor
3,TFSEYPPLGR,Alpha-glucosidase inhibitor
